Tested on: HaCaT keratinocytes
Assay: Influence on keratinocyte proliferation (HaCaT, Cell Titer Viability Assay)
Type: cell-based
Settings: Homo sapiens, 25 μM test compound, KBM/FCS, 1% DMSO, 48 hrs incubation, read-out: inhibition of keratinocyte proliferation compared to control experiments
Method: Influence of Compounds According to the Invention on Keratinocyte Proliferation
5×10^3 HaCaT keratinocytes were seeded into 60 wells of 96 well plates in 200 μl KBM/10% FCS and incubated for 24 hrs at 37° C. The test compounds were dissolved at 100 mM in DMSO. The test items were then diluted to a concentration of 25 μM in KBM/FCS with a final concentration of 1% DMSO. The test compounds, as well as the negative control for unstimulated cells (KBM/1% DMSO) and stimulated cells (KBM/FCS/1% DMSO), were added to the HaCaTs in triplicates and incubated for 48 hrs. At the end of the incubation period, the media was removed and cell numbers were determined with Cell Titer Viability Assay from Promega (#G7571/G7572) according to the manufacturer's instructions.

COc1cccc(C(=O)N2c3ccccc3-c3ccccc3C2c2c[nH]c3ccccc23)c1 (stereo not shown) [Example 11, [6-(1H-Indol-3-yl)-6H-phenanthridin-5-yl]-(3-methoxy-phenyl)-methanone] showed an inhibition at 25 µM greater than 50%.

Reference: patent US7276606B2, “Phenantridine analogues and uses thereof” (4SC AG, priority 2004, dated 2007)
